Experimental data published in PubChem BioAssay (NCI).
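Interpolation was linear, between the two tested concentrations surrounding the appropriate level; five concentrations were tested over 48 hours in 96-well plates. GI50 is the concentration that inhibits growth by half. TGI denotes the concentration required for complete inhibition of growth.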

Key:
Assay in all cases: DTP human tumour cell line panel, 48 h
[1] = tested on: A498 renal
[2] = tested on: A549 NSCLC
[3] = tested on: HCT-15 colon
[4] = tested on: M14 melanoma
[5] = tested on: MCF7 breast
[6] = tested on: RXF 393 renal
[7] = tested on: SF-539 CNS
[8] = tested on: SK-MEL-2 melanoma
[9] = tested on: U251 CNS
[10] = tested on: UO-31 renal

With `CC1=C2[C@@H](CC1)[C@]1(C)O[C@@](C(C)C)(C[C@H]1OC(=O)CO)[C@H]2OC(=O)CCCc1ccccc1` the GI50 [1] was 6.4 µM, the TGI [1] was 19.6 µM and the GI50 [2] was 6.96 µM. The TGI [2] was 41.5 µM, the GI50 [3] was 9.02 µM and the TGI [3] was 22.2 µM. It also gave a GI50 [4] of 7.78 µM, a TGI [4] of 21.8 µM and a GI50 [5] of 13.2 µM. It also gave a TGI [5] of 29.7 µM, a GI50 [6] of 11.9 µM and a TGI [6] of 25.6 µM. The GI50 [7] was 14.2 µM, the TGI [7] was 27.5 µM and the GI50 [8] was 11.7 µM. It also gave a TGI [8] of 27.2 µM, a GI50 [9] of 5.61 µM and a TGI [9] of 20.9 µM. The GI50 [10] was 3.36 µM and the TGI [10] was 14.7 µM.

Molecule `CC1(C)N=c2cc3c(cc2N1c1ccc(Cl)cc1)=Nc1ccccc1N3c1ccc(Cl)cc1` has a GI50 [1] of 8.37 µM, a TGI [1] greater than 100 µM and a GI50 [2] of 5.93 µM. The TGI [2] was greater than 100 µM, the GI50 [3] was 4.26 µM and the TGI [3] was greater than 100 µM. The GI50 [4] was 9.32 µM, the TGI [4] was greater than 100 µM and the GI50 [5] was 2.41 µM. The TGI [5] was 23.4 µM, the GI50 [6] was 1.75 µM and the TGI [6] was 5.77 µM. For the same molecule, the GI50 [7] was 8.97 µM, the TGI [7] was greater than 100 µM and the GI50 [8] was 3.9 µM. The TGI [8] was greater than 100 µM, the GI50 [9] was 8.03 µM and the TGI [9] was greater than 100 µM. It also gave a GI50 [10] of 2.96 µM and a TGI [10] greater than 100 µM.

For `CC1(C)CCc2c(c(N=Nc3ccccc3F)c3ccccc3c2O)O1`, the GI50 [1] was 25.9 µM, the TGI [1] was greater than 100 µM and the GI50 [2] was 34 µM. It also gave a TGI [2] greater than 100 µM, a GI50 [3] of 78.3 µM and a TGI [3] greater than 100 µM. The GI50 [4] was greater than 100 µM, the TGI [4] was greater than 100 µM and the GI50 [5] was greater than 100 µM. The TGI [5] was greater than 100 µM, the GI50 [6] was 79 µM and the TGI [6] was greater than 100 µM. It also gave a GI50 [7] of 21.2 µM, a TGI [7] of 40.4 µM and a GI50 [8] greater than 100 µM. For the same molecule, the TGI [8] was greater than 100 µM, the GI50 [9] was 19.4 µM and the TGI [9] was 37 µM. The GI50 [10] was 54.7 µM and the TGI [10] was greater than 100 µM.

In the case of `O=C1c2ccccc2C(=O)c2c1oc1c2c(=O)[nH]c2ccc(Cl)cc21`, the GI50 [1] is reported as 0.214 µM, the TGI [1] is reported as 0.959 µM and the GI50 [2] is reported as 1.03 µM. The TGI [2] was 2.92 µM, the GI50 [3] was 0.208 µM and the TGI [3] was 0.512 µM. For the same molecule, the GI50 [4] was 0.397 µM, the TGI [4] was 1.53 µM and the GI50 [5] was 0.23 µM. For the same molecule, the TGI [5] was 1.05 µM, the GI50 [6] was 0.21 µM and the TGI [6] was 0.577 µM. For the same molecule, the GI50 [7] was 0.229 µM, the TGI [7] was 0.566 µM and the GI50 [8] was 1.75 µM. It also gave a TGI [8] of 5.18 µM, a GI50 [9] of 0.268 µM and a TGI [9] of 0.767 µM. For the same molecule, the GI50 [10] was 0.195 µM and the TGI [10] was 0.605 µM.

In the case of `O=C(Nc1cccc(C(F)(F)F)c1)c1ccc(NC2=C(Cl)C(=O)N(Cc3ccccc3)C2=O)cc1`, the GI50 [1] is reported as 24.4 µM, the TGI [1] is reported as 45.7 µM and the GI50 [2] is reported as 34.1 µM. The TGI [2] was 84.9 µM, the GI50 [3] was 4.41 µM and the TGI [3] was 18.9 µM. It also gave a GI50 [4] of 9.26 µM, a TGI [4] of 21.7 µM and a GI50 [5] of 2.02 µM. It also gave a TGI [5] of 4.54 µM, a GI50 [6] of 29.4 µM and a TGI [6] of 64.8 µM. For the same molecule, the GI50 [7] was 14.9 µM, the TGI [7] was 34.1 µM and the GI50 [8] was 7.04 µM. The TGI [8] was 24.2 µM, the GI50 [9] was 13.7 µM and the TGI [9] was 27.1 µM. For the same molecule, the GI50 [10] was 2.84 µM and the TGI [10] was 9.06 µM.

`C=CCOc1ccc(N)c([N+](=O)[O-])c1` was tested, and the TGI [1] was greater than 100 µM, the TGI [2] was greater than 100 µM and the TGI [3] was greater than 100 µM. For the same molecule, the TGI [4] was greater than 100 µM, the TGI [5] was greater than 100 µM and the TGI [6] was greater than 100 µM. The TGI [7] was greater than 100 µM, the TGI [8] was greater than 100 µM and the TGI [9] was greater than 100 µM. It also gave a TGI [10] greater than 100 µM.

`Cc1cc(=O)oc2cc3oc(N(C)c4ccccc4)nc(=O)c3cc12` gave a TGI [1] greater than 100 µM, a TGI [2] greater than 100 µM and a TGI [3] greater than 100 µM. For the same molecule, the TGI [4] was greater than 100 µM, the TGI [5] was greater than 100 µM and the TGI [6] was greater than 100 µM. The TGI [7] was greater than 100 µM, the TGI [8] was greater than 100 µM and the TGI [9] was greater than 100 µM. It also gave a TGI [10] greater than 100 µM.

`Cc1ccc2[nH]c(C(=O)NN3C(=O)C(C)SC34CCC(C)CC4)c(-c3ccccc3)c2c1` (centres undefined) gave a GI50 [1] of 17.2 µM, a TGI [1] of 35 µM and a GI50 [2] of 14.3 µM. The TGI [2] was 31.8 µM, the GI50 [3] was 19.4 µM and the TGI [3] was 53.1 µM. It also gave a GI50 [4] of 18.2 µM, a TGI [4] of 39 µM and a GI50 [5] of 17.5 µM. The TGI [5] was greater than 100 µM, the GI50 [6] was 13.7 µM and the TGI [6] was 30.1 µM. The GI50 [7] was 20.8 µM, the TGI [7] was 45.6 µM and the GI50 [8] was 17.8 µM. It also gave a TGI [8] of 36.7 µM, a GI50 [9] of 15.7 µM and a TGI [9] of 34.1 µM. The GI50 [10] was 14 µM and the TGI [10] was 29.4 µM.

`CC[C@H]1CCC/C=C/[C@@H]2C[C@H](O)C[C@H]2[C@H](O)/C=C/C(=O)O1` gave a GI50 [1] of 0.0174 µM, a TGI [1] of 0.0596 µM and a GI50 [2] of 0.0434 µM. It also gave a TGI [2] greater than 100 µM, a GI50 [3] of 0.0446 µM and a GI50 [4] of 0.0376 µM. For the same molecule, the TGI [4] was greater than 100 µM, the GI50 [5] was 0.0266 µM and the TGI [5] was 0.102 µM. It also gave a GI50 [6] of 0.016 µM, a TGI [6] of 0.0379 µM and a GI50 [7] of 0.06 µM. It also gave a TGI [7] greater than 100 µM, a GI50 [8] of 0.0337 µM and a TGI [8] of 0.198 µM. It also gave a GI50 [9] of 0.0443 µM, a TGI [9] greater than 100 µM and a GI50 [10] of 0.0267 µM. The TGI [10] was greater than 37.2 µM.

Molecule `COc1cc2c(/C=C3/C(=O)Nc4ccc(O)cc43)c(Cl)n(Cc3cc(OC)c(OC)c(OC)c3)c2cc1C` has a GI50 [1] of 3.09 µM, a TGI [1] greater than 30.2 µM and a GI50 [2] of 3.45 µM. It also gave a TGI [2] greater than 100 µM, a GI50 [3] of 1.81 µM and a TGI [3] greater than 34.1 µM. The GI50 [4] was 1.93 µM, the TGI [4] was 51 µM and the GI50 [5] was 0.776 µM. It also gave a TGI [5] of 19.7 µM, a GI50 [6] of 1.37 µM and a TGI [6] of 6.4 µM. The GI50 [7] was 2.24 µM, the TGI [7] was greater than 31.1 µM and the GI50 [8] was 1.93 µM. It also gave a TGI [8] of 13.7 µM, a GI50 [9] of 2.49 µM and a TGI [9] greater than 28.3 µM. It also gave a GI50 [10] of 3.25 µM and a TGI [10] greater than 74.4 µM.
